Patent publication US7202255B2, “Substituted [1,4] benzodioxino[2,3-e] isoindole derivatives, method for preparing and pharmaceutical compositions containing same” (Les Laboratoires Servier, priority 2002, dated 2007)
Where a name gives a salt, the structure may show the parent alone.

A melting point of over 360 °C was found for `CN(C)CCn1c(=O)c2c3oc4ccccc4oc3c3[nH]c4ccc(O)cc4c3c2c1=O` [Example 20, 7-[2-(Dimethylamino)ethyl]-10-hydroxy[1,4]benzodioxino[2,3-a]-pyrrolo[3,4-c]carbazole-6,8(7H,13H)-dione] in this work.
A melting point of 200 °C was found for `CN1C(=O)c2c(Oc3ccccc3O)cc3[nH]c4cc(O)ccc4c3c2C1=O` [Example 41, 8-Hydroxy-4-(2-hydroxyphenoxy)-2-methylpyrrolo[3,4-c]-carbazole-1,3(2H,6H)-dione] in this work.
A melting point of 214 °C was found for `CN1C(=O)c2c(Oc3ccccc3OS(=O)(=O)C(F)(F)F)cc3[nH]c4ccccc4c3c2C1=O` (as salt: methanesulphonate) [Example 38, 2-[(2-Methyl-1,3-dioxo-1,2,3,6-tetrahydropyrrolo[3,4-c]carbazol-4-yl)oxy]phenyl trifluoromethanesulphonate] in this work.
A melting point of over 304 °C was found for `CC(C)(C)OC(=O)n1c2ccc(OCc3ccccc3)cc2c2c3c(=O)[nH]c(=O)c3c3oc4ccccc4oc3c21` [Example 25, tert-Butyl 10-(benzyloxy)-6,8-dioxo-7,8-dihydro[1,4]benzo-dioxino[2,3-a]pyrrolo[3,4-c]carbazole-13(6H)-carboxylate] in this work.
A melting point of 170 °C was found for `CN1C(=O)c2c(Oc3ccccc3O)cc3c(c2C1=O)c1cc(OCc2ccccc2)ccc1n3C(=O)OC(C)(C)C` [Example 31, tert-Butyl 9-(benzyloxy)-4-(2-hydroxyphenoxy)-2-methyl-1,3-dioxo-2,3-dihydropyrrolo[3,4-c]carbazole-6(1H)-carboxylate] in this work.
A melting point of over 250 °C was found for `Cn1c(=O)c2c3oc4ccccc4oc3c3c(oc4cccnc4n3C(=O)Oc3ccccc3)c2c1=O` [Example 3, Phenyl 7-methyl-6,8-dioxo-7,8-dihydro[1,4]benzodioxino[2,3-e]-pyrido[2′,3′:5,6][1,4]oxazino[3,2-g]isoindole-15(6H)-carboxylate] in this work.
A melting point of 191 °C was found for `CN1C(=O)c2c(Oc3ccccc3O)cc3c(c2C1=O)c1ccc(OCc2ccccc2)cc1n3C(=O)OC(C)(C)C` [Example 39, tert-Butyl 8-(benzyloxy)-4-(2-hydroxyphenoxy)-2-methyl-1,3-dioxo-2,3-dihydropyrrolo[3,4-c]carbazole-6(1H)-carboxylate] in this work.
In the case of `CN(C)CCn1c(=O)c2c3oc4ccccc4oc3c3[nH]c4ccc(F)cc4c3c2c1=O` [Example 12, 7-[2-(Dimethylamino)ethyl]-10-fluoro[1,4]benzodioxino[2,3-a]-pyrrolo[3,4-c]carbazole-6,8(7H,13H)-dione], the melting point is reported as 337 °C (dec.).
A melting point of over 350 °C was found for `Cn1c(=O)c2c3oc4ccccc4oc3c3[nH]c4ccc(O)cc4c3c2c1=O` [Example 18, 10-Hydroxy-7-methyl[1,4]benzodioxino[2,3-a]pyrrolo[3,4-c]-carbazole-6,8(7H,13H)-dione] in this work.
With `CN1C(=O)c2c(Oc3ccccc3O)cc3c(c2C1=O)c1ccccc1n3C(=O)OC(C)(C)C` [Example 33, tert-Butyl 4-(2-hydroxyphenoxy)-2-methyl-1,3-dioxo-2,3-dihydropyrrolo[3,4-c]carbazole-6(1H)-carboxylate] the melting point was 182 °C (dec.).
With `CN1C(=O)c2c(Oc3ccccc3O)cc3[nH]c4ccc(O)cc4c3c2C1=O` [Example 32, 9-Hydroxy-4-(2-hydroxyphenoxy)-2-methylpyrrolo[3,4-c]-carbazole-1,3(2H,6H)-dione] the melting point was 277 °C (dec.).
A melting point of over 360 °C was found for `CN(C)CCn1c(=O)c2c3oc4ccccc4oc3c3[nH]c4cc(O)ccc4c3c2c1=O` [Example 24, 7-[2-(Dimethylamino)ethyl]-11-hydroxy[1,4]benzodioxino[2,3-a]-pyrrolo[3,4-c]carbazole-6,8(7H,13H)-dione] in this work.
A melting point of over 360 °C was found for `Cn1c(=O)c2c3oc4ccccc4oc3c3[nH]c4cc(F)ccc4c3c2c1=O` [Example 13, 11-Fluoro-7-methyl[1,4]benzodioxino[2,3-a]pyrrolo[3,4-c]carbazole-6,8(7H,13H)-dione] in this work.
A melting point of 360 °C was found for `Cn1c(=O)c2c3oc4ccccc4oc3c3[nH]c4cc(O)ccc4c3c2c1=O` [Example 22, 11-Hydroxy-7-methyl[1,4]benzodioxino[2,3-a]pyrrolo[3,4-c]-carbazole-6,8(7H,13H)-dione] in this work.
A melting point of 130 °C was found for `Cn1c(=O)c2c3oc4ccccc4oc3c3c(oc4ccccc4n3C(=O)Oc3ccccc3)c2c1=O` [Example 1, Phenyl 7-methyl-6,8-dioxo-7,8-dihydro[1,4]benzodioxino[2,3-a]-pyrrolo[3,4-c]phenoxazine-15(6H)carboxylate] in this work.
A melting point of over 355 °C was found for `Cn1c(=O)c2c3oc4ccccc4oc3c3[nH]c4ccc(F)cc4c3c2c1=O` [Example 11, 10-Fluoro-7-methyl[1,4]benzodioxino[2,3-a]pyrrolo[3,4-c]carbazole-6,8(7H,13H)-dione] in this work.
A melting point of over 333 °C was found for `COc1ccccc1Oc1cc2c(c3c1C(=O)N(C)C3=O)c1ccccc1n2C(=O)OC(C)(C)C` [Example 34, tert-Butyl 4-(2-methoxyphenoxy)-2-methyl-1,3-dioxo-2,3-dihydropyrrolo[3,4-c]carbazole-6(1H)-carboxylate] in this work.
In the case of `CN(C)CCn1c(=O)c2c3oc4ccccc4oc3c3[nH]c4cc(OCc5ccccc5)ccc4c3c2c1=O` [Example 23, 11-(Benzyloxy)-7-[2-(dimethylamino)ethyl][1,4]benzodioxino[2,3-a]-pyrrolo[3,4-c]carbazole-6,8(7H,13H)-dione], the melting point is reported as 262 °C (dec.).
A melting point of 228 °C was found for `COc1ccccc1Oc1cc2[nH]c3ccccc3c2c2c1C(=O)N(C)C2=O` [Example 35, 4-(2-Methoxyphenoxy)-2-methylpyrrolo[3,4-c]carbazole-1,3(2H,6H)-dione] in this work.
With `CN(C)CCn1c(=O)c2c3oc4ccccc4oc3c3[nH]c4ccccc4c3c2c1=O` [Example 7, 7-[2-(Dimethylamino)ethyl][1,4]benzodioxino[2,3-a]pyrrolo[3,4-c]-carbazole-6,8(7H,13H)-dione] the melting point was 298 °C (dec.).
For `Cn1c(=O)c2c3oc4ccccc4oc3c3c(c4ccccc4n3C(=O)OC(C)(C)C)c2c1=O` [Example 5, tert-Butyl 7-methyl-6,8-dioxo-7,8-dihydro[1,4]benzodioxino[2,3-a]-pyrrolo[3,4-c]carbazole-13(6H)-carboxylate], the melting point was 189 °C (dec.).
In the case of `CN(C)CCn1c(=O)c2c3oc4ccccc4oc3c3[nH]c4cc(F)ccc4c3c2c1=O` [Example 14, 7-[2-(Dimethylamino)ethyl]-11-fluoro[1,4]benzodioxino[2,3-a]-pyrrolo[3,4-c]carbazole-6,8(7H,13H)-dione], the melting point is reported as 301 °C (dec.).
A melting point of 182 °C was found for `CN1C(=O)c2c(Oc3ccccc3OS(=O)(=O)C(F)(F)F)cc3c(c2C1=O)c1ccccc1n3C(=O)OC(C)(C)C` [Example 37, tert-Butyl 2-methyl-1,3-dioxo-4-(2-{[(trifluoromethyl)sulphonyl]-oxy}phenoxy)-2,3-dihydropyrrolo[3,4-c]carbazole-6(1H)-carboxylate] in this work.
A melting point of 150 °C was found for `CN(C)CCn1c(=O)c2c3oc4ccccc4[nH]c3c3oc4ccccc4oc3c2c1=O` [Example 2, 7-[2-(Dimethylamino)ethyl][1,4]benzodioxino[2,3-a]pyrrolo[3,4-c]-phenoxazine-6,8(7H,15H)-dione] in this work.
In the case of `CN(C)CCn1c(=O)c2c3oc4cccnc4[nH]c3c3oc4ccccc4oc3c2c1=O` [Example 4, 7-[2-(Dimethylamino)ethyl][1,4]benzodioxino[2,3-e]pyrido[2′,3′:5,6]-[1,4]oxazino[3,2-g]isoindole-6,8(7H,15H)-dione], the melting point is reported as 150 °C (dec.).
A melting point of 199 °C was found for `CC(C)(C)OC(=O)n1c2cc(OCc3ccccc3)ccc2c2c3c(=O)[nH]c(=O)c3c3oc4ccccc4oc3c21` [Example 27, tert-Butyl 11-(benzyloxy)-6,8-dioxo-7,8-dihydro[1,4]benzo-dioxino[2,3-a]pyrrolo[3,4-c]carbazole-13(6H)-carboxylate] in this work.
With `CN(C)CCn1c(=O)c2c3oc4ccccc4oc3c3[nH]c4ccc(OCc5ccccc5)cc4c3c2c1=O` [Example 19, 10-(Benzyloxy)-7-[2-(dimethylamino)ethyl][1,4]benzodioxino[2,3-a]-pyrrolo[3,4-c]carbazole-6,8(7H,13H)-dione] the melting point was 254 °C (dec.).
A melting point of over 340 °C was found for `O=c1[nH]c(=O)c2c1c1oc3ccccc3oc1c1[nH]c3cc(O)ccc3c12` [Example 28, 11-Hydroxy[1,4]benzodioxino[2,3-a]pyrrolo[3,4-c]carbazole-6,8(7H,13H)-dione] in this work.
A melting point of 198 °C was found for `CC(C)(C)OC(=O)n1c2cc(OCc3ccccc3)ccc2c2c3c(c(Oc4ccccc4O)cc21)C(=O)NC3=O` [Example 30, tert-Butyl 8-(benzyloxy)-4-(2-hydroxyphenoxy)-1,3-dioxo-2,3-dihydropyrrolo[3,4-c]carbazole-6(1H)-carboxylate] in this work.
A melting point of 186 °C was found for `CN1C(=O)c2c(Oc3ccccc3OS(=O)(=O)C(F)(F)F)cc3c(c2C1=O)c1ccc(OCc2ccccc2)cc1n3C(=O)OC(C)(C)C` [Example 40, tert-Butyl 8-(benzyloxy)-2-methyl-1,3-dioxo-4-(2-{[(trifluoro-methyl)sulphonyl]oxy}phenoxy)-2,3-dihydropyrrolo[3,4-c]-carbazole-6(1H)-carboxylate] in this work.
